Data on 67 molecules can be found in PubChem BioAssay AID2124 (Sanford-Burnham Center for Chemical Genomics, 2009).

The assay is described as follows: GFP-wavelength compound autofluorescence in cells – imaging, high-content imaging, artefact control, dose response (AID 2124).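 On all read-outs here: cells exposed to compound for 48 hours before fixing.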 The note with it: cells, GFP-channel autofluorescence, high-content imaging, at 10 µM; for z-score: stronger effect = higher value.

Records with an inconclusive call do not appear. Calls of active or inactive are those of the source. How the calls were made is not given here; tested in MIN6 cells.

Turning to `COc1ccc(NC(=O)c2[nH]c(C)c(C(C)=O)c2C)cc1Cl`, the z-score was -0.33 (inactive) and the cell count was 3410 cells.

In the case of `NS(=O)(=O)c1ccc(NC=C2C(=O)OC3(CCCCC3)OC2=O)cc1`, the z-score is -0.25 (inactive) and the cell count is 3080 cells.

For `Cc1cc(C)cc(NC(=O)/C=C/c2ccc([N+](=O)[O-])s2)c1`, the z-score was 0.02 and the cell count amounted to 960 cells.

For `COc1ccc(OC)c(C2=NOC(C(=O)NCC3CCCO3)C2)c1` (centres undefined), the z-score is -0.39 (inactive) and the cell count worked out at 2830 cells.

In the case of `CC1CCN(C(=O)CNS(=O)(=O)c2ccc(Br)s2)CC1`, the z-score was -0.33 (inactive) and the cell count was 3290 cells.

In the case of `Cc1cccc(-c2ncc(CN3CCCC(CO)(Cc4ccccc4C)C3)cn2)c1` (centres undefined), the z-score is -0.35 (inactive) and the cell count amounted to 3340 cells.

As for `O=C(NN=C1CCN(Cc2ccccc2)CC1)c1cccc(S(=O)(=O)Nc2ccccc2Cl)c1`, the z-score was -0.38 (inactive) and the cell count is 3200 cells.

As to `CCS(=O)(=O)c1ccc2oc(SCC(=O)NC3CCCC(C)C3C)nc2c1` (centres undefined), the z-score was -0.26 (inactive) and the cell count worked out at 2950 cells.

On to `N#CC1CC(c2ccc([N+](=O)[O-])cc2)=NN1c1ccc([N+](=O)[O-])cc1` (centres undefined), for which the z-score was -0.25 (inactive) and the cell count worked out at 3490 cells.

Take `O=C(Nc1ccon1)c1cccc(S(=O)(=O)N2CCCCC2)c1`: the z-score was -0.39 (inactive) and the cell count was found to be 3190 cells.

Regarding `Cc1ccc2[nH]c(-c3ccccc3)c(CN(C)C)c(=O)c2c1`, the z-score is -0.33 (inactive) and the cell count turned out to be 3240 cells.

Turning to `O=C(N=C1SCC(=O)N1c1ccccc1Cl)c1ccccc1`, the z-score was -0.31 (inactive) and the cell count was 3110 cells.

For `CCCCNC(=O)/C(C#N)=c1\s/c(=C\c2ccccc2OC(F)F)c(=O)n1CCCOC`, the z-score is -0.37 (inactive) and the cell count is 3260 cells.

In the case of `COCCNC(=O)Cc1ccc(F)cc1`, the z-score was -0.33 (inactive) and the cell count was found to be 2820 cells.

Take `Cc1n[nH]c(C)c1N1C(=O)c2cccc3c(N4CCCCCC4)ccc(c23)C1=O`: the z-score was 0.33 and the cell count amounted to 2690 cells.

As for `Nc1ccc(-c2nc3nc(N)nc(N)c3nc2-c2ccc(N)cc2)cc1`, the z-score was -0.32 (inactive) and the cell count stood at 2980 cells.

As for `Cc1ccccc1OCC(=O)OC1CCN(C)CC1`, the z-score is -0.38 (inactive) and the cell count was found to be 2940 cells.

Turning to `CC(C)N1CCc2c(sc(NC(=O)c3cc4cc([N+](=O)[O-])ccc4s3)c2C(N)=O)C1`, the z-score was -0.23 (inactive) and the cell count was determined as 177 cells.

In the case of `COC(=O)c1ccc(COc2ccc3c(C)c(C)c(=O)oc3c2)o1`, the z-score was -0.33 (inactive) and the cell count came to 3400 cells.

As for `Cc1nc(NC(=O)COC(=O)CCS(=O)(=O)c2ccccc2Cl)c(Cl)cc1Cl`, the z-score is -0.39 (inactive) and the cell count is 3210 cells.

With `N#CCc1nc(CSc2nc3ccccc3s2)cs1`, the z-score was -0.32 (inactive) and the cell count came out at 2980 cells.

On to `N#C/C(=C/c1ccc(N2CCCCC2)o1)C(=O)Nc1ccc2ccccc2c1`, for which the z-score is 5.59 and the cell count stood at 3000 cells.

`Cc1cccc(NC(=O)/C=C/c2ccc([N+](=O)[O-])s2)c1`: the z-score was 0.41 and the cell count was 244 cells.

`Nc1c(C(=O)NC2CCCC2)sc2nc(-c3cccs3)ccc12`: the z-score was -0.31 (inactive) and the cell count came to 2460 cells.

On to `O=C(NCc1cccs1)c1ccc(N2CCCCC2)nc1`, for which the z-score was -0.33 (inactive) and the cell count came out at 2760 cells.

Regarding `Cc1ccc(-c2cc(-c3ccco3)c3c(N)c(C(=O)NN)oc3n2)cc1`, the z-score is -0.32 (inactive) and the cell count stood at 2700 cells.

Turning to `CCOC(=O)c1sc(NC(=O)c2sccc2C)cc1C`, the z-score is -0.39 (inactive) and the cell count stood at 3300 cells.

With `O=c1ccnc(Nc2ccc3c(c2)OCCO3)[nH]1`, the z-score was -0.39 (inactive) and the cell count was found to be 2860 cells.

On to `CCCS(=O)(=O)N1CCC(C(=O)N2CCOCC2)CC1`, for which the z-score is -0.38 (inactive) and the cell count is 2930 cells.

As for `CC(=O)c1ccc2cccc3c2c1N=CN3C`, the z-score was -0.23 (inactive) and the cell count was 3230 cells.

With `CCCCNc1ccc2c3c(cccc13)C(=O)N(CCCC)C2=O`, the z-score was 3.41 and the cell count is 2720 cells.

Take `Cc1cc(C)c2nc(NNC(=O)c3cc(-c4cccs4)nc4ccccc34)sc2c1`: the z-score is -0.33 (inactive) and the cell count was 2740 cells.

Consider `CCOCCCNc1nc2c(C)cccn2c(=O)c1/C=C1\SC(=S)N(CC(C)C)C1=O`, for which the z-score was -0.38 (inactive) and the cell count is 2900 cells.

In the case of `Cc1cc(C)c(C(=O)O)c(CC(C)(C)C(=O)O)c1`, the z-score was -0.33 (inactive) and the cell count is 3280 cells.

On to `N#C/C(=C/c1ccc(N2CCCCCC2)o1)c1ccc(Cl)cc1`, for which the z-score is 0.94 and the cell count was found to be 277 cells.

Take `S=c1[nH]nc(-c2ccccc2)n1CC1CCCO1` (centres undefined): the z-score is -0.33 (inactive) and the cell count amounted to 3250 cells.

In the case of `COc1ccccc1NS(=O)(=O)c1cc([N+](=O)[O-])ccc1N/N=C/c1sc(N2CCOCC2)nc1-c1ccccc1`, the z-score was 0.22 and the cell count is 2550 cells.

As to `CN1C=CC2=C(C#N)C(N)C(C#N)(C#N)C(c3ccccc3)C2C1` (centres undefined), the z-score is 0.32 and the cell count was 2840 cells.

Consider `COc1ccc(C2C=C(c3cccs3)Nc3nc(CCCO)nn32)cc1` (centres undefined), for which the z-score is -0.38 (inactive) and the cell count was found to be 2650 cells.

Turning to `N#CC(C#N)=C1C=C2C=C(N3CCCCC3)CCC2CC1` (centres undefined), the z-score was 3 and the cell count came out at 3020 cells.

Turning to `Fc1ccc(C2NCCn3cccc32)cc1` (centres undefined), the z-score was -0.38 (inactive) and the cell count came out at 2950 cells.

For the molecule `COCCN1CN(S(=O)(=O)c2ccccc2)c2nc3ccccc3nc21`, the z-score is -0.38 (inactive) and the cell count was 3380 cells.

Consider `COC(=O)Cc1c(C)nc2nc(NCc3ccccc3OC)[nH]n2c1=O`, for which the z-score is -0.26 (inactive) and the cell count amounted to 3050 cells.

In the case of `N#C/C(=C/c1ccc(N2CCCCC2)o1)C(=O)NCCc1c[nH]c2ccccc12`, the z-score was 0.47 and the cell count stood at 3410 cells.

In the case of `Oc1c(C=NCc2ccc(F)cc2)[nH]c2ccc(Br)c(Cl)c12`, the z-score was -0.31 (inactive) and the cell count was determined as 3310 cells.

For the molecule `Cc1cc(/C=C2\SC(=S)NC2=O)c(C)n1-c1ccc(O)cc1`, the z-score was -0.36 (inactive) and the cell count amounted to 3000 cells.

For the molecule `COC(=O)c1sccc1NC(=O)c1cc(OC)c(OC)c(OC)c1`, the z-score is -0.39 (inactive) and the cell count amounted to 3020 cells.

With `CCCn1nc2cc(C(=O)NCc3ccccc3)ccc2c1OCC`, the z-score is -0.33 (inactive) and the cell count was 3340 cells.

In the case of `CCCCCCN1C=CC(=C/C=C(\C#N)C(=O)OCC)C=C1`, the z-score is 0.43 and the cell count was 3270 cells.

For `N=c1oc2c3c4c(cc2cc1C(=O)Nc1ccccc1)CCCN4CCC3`, the z-score is 0.18 and the cell count was 3140 cells.

Take `COc1ccc(N(C(=O)Cc2cccs2)C2C=CS(=O)(=O)C2)cc1` (centres undefined): the z-score is -0.39 (inactive) and the cell count worked out at 3350 cells.

Take `CCOc1ccc(NC(=O)C2CCC(C)(C(=O)O)C2(C)C)cc1` (centres undefined): the z-score is -0.39 (inactive) and the cell count was 3170 cells.

Take `CC(C)NC(=O)NC(=O)COC(=O)c1cccc(S(=O)(=O)N2CCCCC2)c1`: the z-score is -0.39 (inactive) and the cell count was 3040 cells.

Regarding `COCCNC(=S)N/N=C(\C)c1ccc2cc(OC)ccc2c1`, the z-score was -0.33 (inactive) and the cell count turned out to be 2790 cells.

Turning to `N#CC(C#N)=C1C=C2C=C(N3CCOCC3)CCC2CC1` (centres undefined), the z-score is 1.21 and the cell count amounted to 3080 cells.

Take `O=C(CNC(=O)c1ccco1)OCC(=O)c1ccccc1`: the z-score is -0.33 (inactive) and the cell count was determined as 3180 cells.

Regarding `Cc1nnc(NC(=O)c2sc3nc(-c4cccs4)cc(C(F)(F)F)c3c2N)s1`, the z-score was 0.85 and the cell count is 2610 cells.

As for `COc1cccc(/C=N/NC(=O)c2oc3nc(-c4ccccc4)cc(-c4ccco4)c3c2N)c1`, the z-score is -0.32 (inactive) and the cell count was 3030 cells.

With `Cc1cc(C)c(C#N)c(SCC2COc3ccccc3O2)n1` (centres undefined), the z-score was -0.33 (inactive) and the cell count was 3670 cells.

In the case of `CN(C)c1ccc(/C=C2\C(=N)N3C(=NC2=O)Sc2cc(S(C)(=O)=O)ccc23)cc1`, the z-score is -0.29 (inactive) and the cell count stood at 2790 cells.

For the molecule `O=C(Nc1ccc(N2CCCCC2)cc1)c1cccnc1`, the z-score was -0.39 (inactive) and the cell count came out at 3060 cells.

For the molecule `COc1ccccc1Nc1nc(Cl)c(C=O)s1`, the z-score was -0.31 (inactive) and the cell count was 2970 cells.

Regarding `O=S(=O)(Nc1cc2nc3ccccc3nc2n1Cc1ccccc1)c1ccc(Cl)cc1`, the z-score is 0.09 and the cell count was 777 cells.

For the molecule `Fc1ccc(C2CC(c3ccco3)=NN2c2ccccc2)cc1` (centres undefined), the z-score was -0.33 (inactive) and the cell count was determined as 2910 cells.

As for `Cc1ccccc1-c1nnc(-c2ccc(Cl)cc2)o1`, the z-score was -0.26 (inactive) and the cell count stood at 2820 cells.

As to `CN1CCN(Cc2nc(N)nc(Nc3ccc4c(c3)OCCO4)n2)CC1`, the z-score was -0.39 (inactive) and the cell count is 3330 cells.

Regarding `CC(C)(C)c1cc(C(=O)NCc2cccnc2)ccn1`, the z-score was -0.33 (inactive) and the cell count was 3450 cells.
